From BindingDB's records for PubMed 36270088 (n/a, 2022)

Experiment: Antagonist activity against CXCR4 in human SUP-T1 cells assessed as inhibition of SDF-1alpha-induced cell migration preincubated with cells for 30 mins followed by incubation with SDF-1alpha for 3 hrs by CellTiter-96 reagent based transwell assay

Work on `CC(C)C[C@@H](N)C(=O)NCC(=O)N[C@H](C)C(=O)N[C@H](CO)C(=O)N[C@H](Cc1c[nH]c2ccccc12)C(=O)N[C@H](Cc1cnc[nH]1)C(=O)N[C@H](CCCNC(=N)N)C(=O)N1CCC[C@@H]1C(=O)N[C@H](CC(=O)O)C(=O)N[C@H](CCCCN)C(=O)N[C@H](CCCCN)C(=O)N[C@H](CCCNC(=N)N)C(=O)N(CCCCCC(=O)O)[C@@H](CCCCN)C(=O)N[C@@H](CCCNC(=N)N)C(=O)N[C@@H](CCCCN)C(=O)N[C@@H](CCC(N)=O)C(=O)N[C@@H](CCCNC(=N)N)C(=O)NCC(=O)N1CCC[C@H]1C(=O)NCC(=O)N[C@@H](CCCNC(=N)N)C(=O)N[C@@H](C)C(=O)N[C@@H](Cc1ccccc1)C(N)=O` yielded an IC50 of 6.08 µM.

`CC(C)C[C@@H](N)C(=O)NCC(=O)N[C@H](C)C(=O)N[C@H](CO)C(=O)N[C@H](Cc1c[nH]c2ccccc12)C(=O)N[C@H](Cc1cnc[nH]1)C(=O)N[C@H](CCCNC(=N)N)C(=O)N1CCC[C@@H]1C(=O)N[C@H](CC(=O)O)C(=O)N[C@H](CCCCN)C(=O)N[C@H](CCCCN)C(=O)N[C@H](CCCNC(=N)N)C(=O)N(CCCCCC(=O)O)[C@H](CCCCN)C(=O)N[C@H](CCCNC(=N)N)C(=O)N[C@H](CCCCN)C(=O)N[C@H](CCC(N)=O)C(=O)N[C@H](CCCNC(=N)N)C(=O)NCC(=O)N1CCC[C@@H]1C(=O)NCC(=O)N[C@H](CCCNC(=N)N)C(=O)N[C@H](C)C(=O)N[C@H](Cc1ccccc1)C(N)=O` gave an IC50 of 0.87 µM.
